Measurements: a melting point compilation (Tetko et al.; mined from patent text by program, amines drawn as free bases though some values may be those of a salt)

Compared with `Nc1c([N+](=O)[O-])cnn1-c1c(Cl)cc(C(F)(F)F)cc1Cl`, `CCN(CC)c1nc(N)nc(-c2cc(Cl)ccc2Cl)n1` is lower in melting point: 190 °C for the first, 137 to 138 °C for the second.

Compared with `CC(N)CC(=O)N(c1ccc(Nc2ccccc2)cc1)C(C)C` (centres undefined), `CC(N)C(O)(c1ccccc1)c1ccccc1` (centres undefined) is lower in melting point: 145 to 151 °C for the first, 44 to 45 °C for the second.

First: CCCc1c(OCCCCCCc2cc(C)c(OC)c(OC)c2C)ccc(C(=O)O)c1O
Second: CCCc1c(SC(=O)N(C)C)ccc(C(C)=O)c1OCCCC(=O)OCC
The melting point of the first is higher: 109 to 112 °C for the first, 60 to 63 °C for the second.

First: CCOC(=O)CC[C@H](NC(=O)c1ccc(CCc2cnc3[nH]c(NC(=O)C(C)(C)C)nc(=O)c3c2)s1)C(=O)OCC
Second: CCOC(=O)c1cc(NCc2ccccc2)c(Nc2cccc(C)c2)c(S(N)(=O)=O)c1
The melting point of the first is lower: 57 to 87 °C for the first, 169 to 170 °C for the second.

First: O=C(Nc1ccc(CCCCC2(C(=O)NCC(F)(F)F)c3ccccc3-c3ccccc32)nc1)c1ccccc1
Second: O=C(NCc1ccc(C(F)(F)F)cc1)c1ccnc(NC(=O)c2ccccc2)c1
The melting point of the first is lower: 109 to 113 °C for the first, 165 to 168 °C for the second.

Compared with `Cc1c(-c2ccc(OC(C)C)cc2)n(Cc2ccc(OCCN3CCCCC3)cc2)c2ccc(O)cc12`, `CCC(C)(Oc1ccc(OCc2cc(-c3ccc(O)cc3)no2)cc1)C(=O)O` (centres undefined) is higher in melting point: 120 to 125 °C for the first, 142 to 144 °C for the second.

First: CCCCOc1cc(CCCC(=O)O)n(Cc2ccc(Cl)cc2Cl)n1
Second: CCCCCCCCCC(=O)c1cn(CCCC(=O)O)c2ccccc12
The melting point of the first is lower: 60.5 to 61 °C for the first, 89 to 90 °C for the second.

First: OC(Cc1ccccc1)c1nc(-c2ccncc2)cs1 (centres undefined)
Second: Nc1nc(-c2ccc(-c3ccccc3)cc2)cn1N
The melting point of the first is lower: 120 to 122 °C for the first, greater than 280 °C for the second.

Compared with `COc1ccc(-c2noc(C3CCCN(C(=O)c4ccccc4)C3)n2)cc1` (centres undefined), `Cc1ccc(CC(C(=O)c2ccccc2)N2CCCCC2)cc1` (centres undefined) is lower in melting point: 121 °C for the first, 71 to 72 °C for the second.

First: CS(=O)(=O)Nc1ccc(C(O)CCCNCCC(=O)CCC2CCCC2)cc1 (centres undefined)
Second: CCN1CCc2ccc(C(=O)CCC(=O)N3CCC(c4ccc(Cl)cc4)CC3)cc2C1
The melting point of the first is lower: 101 to 102 °C for the first, 115 to 116 °C for the second.

Compared with `CC1C=CC(=O)OC1=O` (centres undefined), `CCCC(=O)Nc1n[nH]c2c([N+](=O)[O-])c(Br)ccc12` is higher in melting point: 70 to 72 °C for the first, 248 °C for the second.

First: CN(C)C(=O)Sc1ccccc1C#N
Second: CC(C)(CO)NC(=O)c1ccccc1
The melting point of the first is lower: 70 °C for the first, 80 to 82 °C for the second.

Compared with `NC(=O)N1CCNC1=O`, `O=C(O)[C@@H]1CCCN1C(=O)C(CS)CS` is lower in melting point: 200 °C for the first, 138 to 140 °C for the second.

First: CCCC(=Cc1cccc([N+](=O)[O-])c1)[N+](=O)[O-]
Second: COc1ccc(CC(=O)NCCc2ccc([N+](=O)[O-])cc2)cc1
The melting point of the first is lower: 45 to 47 °C for the first, 109 to 110 °C for the second.

First: COC(=O)/C=C(\C)CSc1nc(N)cc(Cl)n1
Second: CO/C=C(/C(=O)OC)c1ccccc1Oc1ncnc(Cl)n1
The melting point of the first is lower: 134 to 136 °C for the first, 137 to 140 °C for the second.

First: O=C(Nc1cccc(OCCCN2CCOCC2)c1)C12CC3CC(CC(C3)C1)C2
Second: O=[N+]([O-])c1ccc2c(C3=CCN(CCCOc4cccc5[nH]ccc45)CC3)c[nH]c2c1
The melting point of the first is lower: 160 to 164 °C for the first, 215 to 225 °C for the second.

First: Cc1ccccc1-c1cccc(C(=O)O)c1
Second: CCOC(=O)c1sc(I)nc1-c1ccccc1
The melting point of the first is higher: 127 °C for the first, 104 to 106 °C for the second.

First: CSc1ncccc1C(=O)CC(=O)C1CC1
Second: CCOC(=O)c1cn(C2CC2)c2c(CO)c(N3CCOCC3)c(F)cc2c1=O
The melting point of the first is lower: 87 to 89 °C for the first, 212 to 216 °C for the second.

First: Nc1cc2c(c(C(=O)O)c1)CCCC2
Second: Cc1cccc(Cl)c1N1CCCN(C2CCC2)C1=S
The melting point of the first is higher: 178 to 180 °C for the first, 89 to 91 °C for the second.

First: CC(=O)c1[nH]cnc1C
Second: CC(=O)N[C@@H](C)c1ccc(CCl)cc1
The melting point of the first is higher: 140 to 142 °C for the first, 114 to 116 °C for the second.

First: COCOc1c(CCO)c(OC)c(OCOC)c(CCCCCc2c(OC)c(OCOC)c(CCO)c(OC)c2OCOC)c1OC
Second: COc1ccc(Cn2c(C(=O)O)c(-c3ccc4c(c3)OCO4)c3cc(OCc4ccccc4)ccc32)c(OCC(=O)O)c1
The melting point of the first is lower: 68 to 70 °C for the first, 147 to 148 °C for the second.

First: Nc1cc(Cl)c(N)c2c1C(=O)c1ccccc1C2=O
Second: O=c1c2cnc3ccc(Cl)cc3c2on1-c1ccccc1
The melting point of the first is higher: 207 to 210 °C for the first, 174 °C for the second.

First: O=P1(Oc2ccccc2)CCCC(CI)O1 (centres undefined)
Second: Cc1oc(-c2ccccc2)nc1CCc1ccc(/C=C/CO)cc1
The melting point of the first is higher: 128 °C for the first, 102 to 103 °C for the second.

Compared with `Oc1cnccc1CCCOc1cccnc1Nc1cccc(Br)c1`, `COc1ccc2c(c1)cc(-c1cc3cccnc3[nH]1)n2C` is higher in melting point: 138 to 141 °C for the first, 234 to 235 °C for the second.

Compared with `Cc1cccc(C2c3cc(NC(=O)CC(C)(C)C)c(C)c(C)c3OC2(C)C)c1` (centres undefined), `CCOC(=O)c1c(=O)c2cc(F)c(N3CCN(C)CC3)cc2n2ccccc12` is higher in melting point: 156 to 157 °C for the first, 167 to 170 °C for the second.

First: CC1OC(n2cc(F)c(NC(=O)c3ccc4c(c3)OCO4)nc2=O)C(O)C1O (centres undefined)
Second: OCc1sc(Cl)nc1-c1ccc(Cl)cc1
The melting point of the first is higher: 124 to 125 °C for the first, 113 to 114 °C for the second.

First: CCCS(=O)(=O)NNC(=O)NNS(=O)(=O)CCC
Second: O=C(NCC(F)(F)F)c1ccc(C=NO)cc1
The melting point of the first is higher: 191 to 194 °C for the first, 153 to 154 °C for the second.
